This is an account of results in patent publication US20250127918A1, “SITE-SELECTIVE CONJUGATION OF A PHARMACEUTICAL AGENT TO AN ANTIBODY USING AN AFFINITY PEPTIDE” (priority 2023, published 2025).

Usually Kd stands for the constant that tells how readily two partners part at equilibrium. Read a low Kd as higher affinity.

For data set [1], the system named is Dupilumab (hIgG4). In words: Small bioconjugation handle installation to other IgGs (Q-ToF LC-MS). Conditions: 20 equivalents, room temperature. Type of data set: biochemical, human. Here is the method:
(§1) Reactions were performed on a 10 μL scale using 0.2 mL PCR tubes (FIG. 64). First, the electrophile-attached Z33 peptide reagent was dissolved in water to prepare a 2 mg/mL solution. IgG (human WN1 (prepared as previously described (ChemBioChem, 19, 2039-2044 (2018)), denosumab (Invitrogen), dupilumab (Invitrogen), or mouse IgG1 (Invitrogen, subtype controlled)), electrophile-attached Z33 peptide reagent (2 mg/mL), HEPES buffer (pH 8.5), and NaCl solution were added to achieve final concentrations of 5 μM, 100 μM, 100 mM, and 200 mM. The contents were mixed using a 5 μL pipette and incubated at room temperature in the dark for 24 hours. The resulting reaction solution was quenched with a 100 mM Tris buffer and analyzed by LC-MS (FIGS. 53A to 53D, Table 10). Sample preparation for LC-MS analysis was performed in the same manner as previously described.
(§2) Reactions were performed on a 10 μL scale using 0.2 mL PCR tubes. First, the electrophile-attached Z33 peptide reagent was dissolved in water to prepare a 2 mg/mL solution. Denosumab (Invitrogen), dupilumab (Invitrogen), or mouse IgG1 (Invitrogen, subtype controlled)), electrophile-attached Z33 peptide reagent (2 mg/mL), HEPES buffer (pH 8.5), and NaCl solution were added to achieve final concentrations of 5 μM, 100 μM, 100 mM, and 200 mM. […] The resulting reaction solution was quenched with a 100 mM Tris buffer and analyzed by LC-MS. […]

Data set [2] deals with Mouse IgG1. The data set is described as above. Format: biochemical. Conditions: 20 equivalents, room temperature. The procedure:
as §1, §2

Data set [3] relates to mouse IgG. In words: Azido transfer to mouse IgG in mouse serum (E1/E2 sandwich ELISA). The note with it: after 2 h of incubation in mouse sera. Type of data set: biochemical. In general terms: An ELISA detects its analyte on a solid surface through an enzyme-linked reagent.
Description: Two sandwich ELISA assays have been developed in-house, one for the detection of the azido moiety conjugated mouse IgG (mIgG, E1), the other one for the detection of the whole mIgGs (modified and unmodified) in the sample (E2). Both E1 and E2 were run simultaneously on a same plate, using the same initial stock sample, and were processed in parallel at the same time for every steps. The same azido-free capture goat anti-mouse polyclonal antibody (Creative Diagnostics) was used for both E1-E2 assays at 1 μg/mL (100 μL per well) for incubation overnight at 4° C. Washing steps were performed thoroughly between each incubation by using 0.02% Tween 20-PBS. […] Absorbances were measured at 450 nm and 540 nm (A0=A450 nm-A540 nm) using a Spark microplate reader (Tecan, USA). The background noise (Ablank) from the serum was subtracted to get the final absorbance of the sample (Asample=A0-Ablank). The ratio Asample (E1)/Asample (E2) was calculated to estimate the percentage of azido transfer on the total amount of IgG in the sample.
Two sandwich ELISA assays have been developed in-house, one for the detection of the azido moiety conjugated mouse IgG (mIgG, E1), the other one for the detection of the whole mIgGs (modified and unmodified) in the sample (E2). […] Absorbances were measured at 450 nm and 540 nm (A0=A450nm−A540nm) using a Spark microplate reader (Tecan, USA). […]
The test system of data set [4] is mouse IgG. The data set is described as follows: Azido transfer to mouse IgG in vivo (E1/E2 ELISA of serum). The note with it: subcutaneous injection of 30 mg/kg, WT Swiss mice, serum at 24 h, listed as N3-2-I. Here is the method:
To evaluate the in vivo azido transfer in mice, two groups of mice were injected subcutaneously or intraperitoneally with the IgG-binder peptides. Mice were sacrificed at 24 hours post-injection, and the blood was collected for ELISA analysis. Sandwich ELISA assays. […] The percentage azido transfer was also compared with intraperitoneal injection of 10 mg/kg Z33-E20Hcy, intraperitoneal injection of 30 mg/kg of Z33-E20Hcy, subcutaneous injection of 30 mg/kg Z33-E20Hcy, and intraperitoneal injection of 30 mg/kg pegylated-Z33-E20Hcy (FIG. 2D).
Two sandwich ELISA assays have been developed in-house, one for the detection of the azido moiety conjugated mouse IgG (mIgG, E1), the other one for the detection of the whole mIgGs (modified and unmodified) in the sample (E2). Both E1 and E2 were run simultaneously on a same plate, using the same initial stock sample, and were processed in parallel at the same time for every steps. […] Absorbances were measured at 450 nm and 540 nm (A0=A450 nm-A540 nm) using a Spark microplate reader (Tecan, USA). The background noise (Ablank) from the serum was subtracted to get the final absorbance of the sample (Asample=A0-Ablank). The ratio Asample (E1)/Asample (E2) was calculated to estimate the percentage of azido transfer on the total amount of IgG in the sample. […]

The conditions of data set [5]: mouse, in vivo, ip. Here is the method:
Each sample was weighted and count in a gamma counter (Wizard2, Perkin Elmer LLC, USA) to get the counts per minutes (cpm) for determining the percentage of injected activity per gram (% IA/g) in each organ. Cpm were decay-corrected by using the following formula: A=A0 e((−(ln2)Δt)/T) with A=decay-corrected cpm, A0=raw cpm, Δt=time difference between the injection and the cpm measurement, and T=half-life of the radionuclide (i.e. 78.41 h for Zr-89).

The target in data set [6] is Fc fragment of IgG1. The data set is described as follows: Binding affinity of Z33 and variants to IgG Fc.
The mark [7] stands for this setting: HEPES pH 8.5, first column so headed.
Setting [8] is: HEPES pH 8.5, second column so headed.

Sequence of Mouse IgG1 (P01868 98-324 limits assumed): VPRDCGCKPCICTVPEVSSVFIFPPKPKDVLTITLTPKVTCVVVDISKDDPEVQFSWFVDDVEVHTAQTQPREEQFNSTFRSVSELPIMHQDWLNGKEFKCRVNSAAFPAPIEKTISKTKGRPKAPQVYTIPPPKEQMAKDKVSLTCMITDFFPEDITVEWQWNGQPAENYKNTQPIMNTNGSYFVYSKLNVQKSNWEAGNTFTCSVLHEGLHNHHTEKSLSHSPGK

With “FNMQQQRRFYEALHD PNLNHcyEQRNAKIKSI RDD [PEL-21]”, the “Light chain total conversion” value in data set [1] (setting [7]) was 13%; in data set [1] (setting [8]) it was 96%; in data set [2] (setting [7]), 2%; in data set [2] (setting [8]), 69%. For the same sequence, in data set [3], the “IgG conversion rate in mouse sera” value is 33±1%. Moreover, the “Azido transfer to mouse IgG in vivo (conversion rate)” value in data set [4] came out at 33±12%. Besides, the “Time remaining in specific organs” value in data set [5] is “up to 144 hours”. In data set [6], this sequence showed an equilibrium dissociation constant (Kd) of approximately 60 nM.
